Measurements taken from US6201001A, “Imidazole antiproliferative agents” (Abbott Laboratories, priority 1999, dated 2001).

What was measured:
[1] = test system: human lung large cell carcinoma, MDR negative (NCI-H460) cells; test: 48-hour cellular proliferation assay, NCI-H460 cells (sulforhodamine); format: cell-based; conditions: NCI-H460, 48-hour
Procedure: (§1) Compounds of this invention were tested in a 48-hour cellular proliferation assay which uses human colon adenocarcinoma, MDR positive (HCT-15) cells, and human lung large cell carcinoma, MDR negative (NCI-H460) cells, in the 96-well microtitre format described in Skehan P., et al. New Colorimetric Cytotoxicity Assay for Anticancer Drug Screening. 1990, J. Natl. Cancer Inst. 82:1107-1112, hereby incorporated by reference. Briefly, the wells of a microtitre plate were charged sequentially with cultured cells and compounds of the invention (1.0×10^-4 to 1.0×10^-11 M in 10% DMSO prepared by dissolving compounds of the invention in DMSO and adding 11 μL of the DMSO solution to 100 μL of culture medium for a final DMSO concentration of 10%). Two of the following controls were also present in each microtitre plate: a solvent (DMSO) control without drug that yielded a 0% inhibition level and a trichloroacetic acid-treated well that yielded a 100% inhibition level. The cells were grown in culture (37° C., 5% CO2 atmosphere) for 48 hours then fixed by the addition of trichloroacetic acid. The wells were stained with sulforhodamine, washed with 1% acetic acid, and treated with 0.01M tris buffer (100 μL) to solubilize the adherent dye. The absorbance of the dye solution was measured with a Molecular Devices SpectraMax340 plate reader. The percent inhibition values were obtained by calculating the proportional response of the experimental values to the absorbance values of the controls.

[2] = test system: human colon adenocarcinoma, MDR positive (HCT-15) cells; test: 48-hour cellular proliferation assay, HCT-15 cells (sulforhodamine); format: cell-based; conditions: HCT-15, 48-hour
Procedure: as §1

IC50 [1]	IC50 [2]	SMILES
34 nM	79 nM	COc1ccc(-c2ncn(C)c2-c2cc(OC)c(OC)c(OC)c2)cc1N [Example 2, 2-methoxy-5-(1-methyl-5-(3,4,5-trimethoxyphenyl)-1H-imidazol-4-yl)phenylamine]
170 nM	220 nM	COc1ccc(-c2c(-c3cc(OC)c(OC)c(OC)c3)ncn2C)cc1N [Example 1, 2-methoxy-5-(1-methyl-4-(3,4,5-trimethoxyphenyl)-1H-imidazol-5-yl)phenylamine]
400 nM	250 nM	COc1cc(-c2ncn(C)c2-c2ccc(N(C)C)cc2)cc(OC)c1OC [Example 4, N,N-dimethyl-4-[1-methyl-4-(3,4,5-trimethoxyphenyl)-1H-imidazol-5-yl]aniline]

SMILES	IC50 [1]	IC50 [2]
COc1ccc(-c2c(-c3cc(OC)c(OC)c(OC)c3)ncn2C)cc1F [Example 3, 5-(3-fluoro-4-methoxyphenyl)-1-methyl-4-(3,4,5-trimethoxyphenyl)-1H-imidazole]	920 nM	850 nM
